Assay results taken from patent publication US4278797A, “Intermediates to phenylmorphans and method of preparation thereof” (priority 1980, dated 1981).
Where two headings read alike, the source gives them in different places.

What was measured:
Mouse writhing = assay: mouse writhing test (intraperitoneal acetic acid); format: in vivo, mice; settings: dose reducing writhing by fifty percent; for ED50: Mus musculus
Text: In another test designed to show analgesic activity, mice are given an intraperitaneal injection of acetic acid which causes the animals to writh. An effective analgesic is one that reduces the writhings. Column 3 of the following table presents the effective sucutaneous and oral doses in mg/kg of a compound of this invention required to reduce the writing in test animals by fifty percent (ED50).

Rat tail jerk = assay: rat-tail jerk assay (light beam or heat source applied to the tail); format: in vivo; settings: dose causing a two second delay in tail removal compared to control animals receiving no drug; for ED (2 s delay): Rattus norvegicus, sc, subcutaneous, read-out: Rat tail jerk subcutaneous injection ED2 seconds
Protocol: The phenylmorphan derivatives provided by this invention are useful as analgesics in the treatment of pain in animals suffering from pain and in need of treatment. […] One such test is the rat-tail jerk assay. In this test, a light beam or heat source is applied to the tail of a rat. The pain threshold of the animal is measured by the latency of the rat to remove its tail from the pain source. Column 2 in the following table presents the effective subcutaneous dose in mg/kg of a number of the compounds of this invention which causes a two second delay (ED2 sec) in tail removal compared to the control animals receiving no drug.

[1] = literature; cited from earlier work
[2] = compared with morphine or with 5-(3-hydroxyphenyl)-2-methylmorphan; literature; cited from earlier work
[3] = sc, subcutaneous, read-out: Mouse writhing s.c. ED50
[4] = oral, read-out: Mouse writhing oral ED50

COc1cccc(C23CCN(C)C(CC(C)C2)C3)c1 (stereo not drawn) [2,7-dimethyl-5-(3-methoxyphenyl)morphan, 2,7-Dimethyl-5-(3-methoxyphenyl)morphan]
ED50 (Mouse writhing; [3]): 3.5 mg/kg
ED50 (Mouse writhing; [4]): 28.5 mg/kg
ED (2 s delay) (Rat tail jerk): 10 mg/kg

CN1CCC2(c3cccc(O)c3)CCCC1C2 (single isomer, unassigned; (-)) [(-)-isomer of 5-(3-hydroxyphenyl)-2-methylmorphan, (-)-5-(3-hydroxyphenyl)-2-methylmorphan]
physical dependence capacity [1]: no physical dependence capacity
analgesic potency [2]: morphine-like potency

CN1CCC2(c3cccc(O)c3)CCCC1C2 (racemic) [racemic 5-(3-hydroxyphenyl)-2-methylmorphan, 5-(3-hydroxyphenyl)-2-methylmorphan]
analgesic potency [2]: nearly equivalent to that of morphine

CN1CCC2(c3cccc(O)c3)CCCC1C2 (stereo not drawn) [2-methyl-5-(3-hydroxyphenyl)-morphan, 2-Methyl-5-(3-hydroxyphenyl)morphan]
ED50 (Mouse writhing; [3]): 1.3 mg/kg
ED50 (Mouse writhing; [4]): 29 mg/kg
ED (2 s delay) (Rat tail jerk): 1 mg/kg

CC1CC2(c3cccc(O)c3)CCCC(C2)N1C (stereo not drawn) [2,3-dimethyl-5-(3-hydroxyphenyl)morphan, 2,3-Dimethyl-5-(3-hydroxyphenyl)morphan]
ED50 (Mouse writhing; [3]): 2 mg/kg
ED50 (Mouse writhing; [4]): 23 mg/kg
ED (2 s delay) (Rat tail jerk): 2 mg/kg

CC1CC2CC(c3cccc(O)c3)(C1)CC(C)N2C (stereo not drawn) [2,3,7-Trimethyl-5-(3-hydroxyphenyl)morphan]
ED50 (Mouse writhing; [3]): 0.66 mg/kg
ED50 (Mouse writhing; [4]): 14 mg/kg
ED (2 s delay) (Rat tail jerk): 0.5 mg/kg

COc1cccc(C23CCCC(C2)N(C)CC3)c1 (stereo not drawn) [2-methyl-5-(3-methoxyphenyl)-morphan, 2-Methyl-5-(3-methoxyphenyl)morphan]
ED50 (Mouse writhing; [3]): 9.6 mg/kg
ED50 (Mouse writhing; [4]): 27.5 mg/kg
ED (2 s delay) (Rat tail jerk): 10 mg/kg

CC1CC2CC(c3cccc(O)c3)(CCN2C)C1 (stereo not drawn) [2,7-dimethyl-5-(3-hydroxyphenyl)morphan, 2,7-Dimethyl-5-(3-hydroxyphenyl)morphan]
ED50 (Mouse writhing; [3]): 0.72 mg/kg
ED50 (Mouse writhing; [4]): 28.5 mg/kg
ED (2 s delay) (Rat tail jerk): 0.5 mg/kg

COc1cccc(C23CCCC(C2)N(C)C(C)C3)c1 (stereo not drawn) [2,3-dimethyl-5-(3-methoxyphenyl)morphan, 2,3-Dimethyl-5-(3-methoxyphenyl)morphan]
Mouse writhing oral ED50 (Mouse writhing; oral): 17.0 mg/kg
Mouse writhing s.c. ED50 (Mouse writhing; subcutaneous): 13.0 mg/kg
Rat tail jerk subcutaneous injection ED2 seconds (Rat tail jerk): 15.0 mg/kg

COc1cccc(C23CC(C)CC(C2)N(C)C(C)C3)c1 (stereo not drawn) [2,3,7-Trimethyl-5-(3-methoxyphenyl)morphan]
ED50 (Mouse writhing; [3]): 7.8 mg/kg
ED50 (Mouse writhing; [4]): 22 mg/kg
ED (2 s delay) (Rat tail jerk): 20 mg/kg
